According to the supplement of paper PMC10307832:

Key:
Experiment in all cases: relative viability (nuclei count vs DMSO), 5 days (fraction); higher = more cells survive
Dovitinib + Foretinib = compound: CN1CCN(c2ccc3nc(-c4c(N)c5c(F)cccc5[nH]c4=O)[nH]c3c2)CC1 [Dovitinib] + COc1cc2c(Oc3ccc(NC(=O)C4(C(=O)Nc5ccc(F)cc5)CC4)cc3F)ccnc2cc1OCCCN1CCOCC1 [Foretinib] (partner 0.25 µM)
Method in brief: (§1)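 A single step with final 0.05% Triton X-100, 1% formaldehyde and 1 ug/ml Hoechst fixed the cells and stained nuclei 5 days after treatment. Lung cancer cell lines in 1536-well plates had been treated by pin tool the day after seeding with one drug alone or a fixed anchor-drug dose plus five library-drug doses (not always all listed) in √10 steps, and nuclei were counted on 4× images. Relative viability is the ratio of nuclei in treated wells to nuclei in vehicle wells, taken as the median of duplicate plates.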

Dovitinib + Olaparib = compound: CN1CCN(c2ccc3nc(-c4c(N)c5c(F)cccc5[nH]c4=O)[nH]c3c2)CC1 [Dovitinib] + O=C(c1cc(Cc2n[nH]c(=O)c3ccccc23)ccc1F)N1CCN(C(=O)C2CC2)CC1 [Olaparib] (partner 8 µM)
Method in brief: as §1

Dovitinib + Alpelisib = compound: CN1CCN(c2ccc3nc(-c4c(N)c5c(F)cccc5[nH]c4=O)[nH]c3c2)CC1 [Dovitinib] + Cc1nc(NC(=O)N2CCC[C@H]2C(N)=O)sc1-c1ccnc(C(C)(C)C(F)(F)F)c1 [Alpelisib] (partner 2 µM)
Method in brief: as §1

Dovitinib + Pemetrexed = compound: CN1CCN(c2ccc3nc(-c4c(N)c5c(F)cccc5[nH]c4=O)[nH]c3c2)CC1 [Dovitinib] + Nc1nc2[nH]cc(CCc3ccc(C(=O)N[C@@H](CCC(=O)O)C(=O)O)cc3)c2c(=O)[nH]1 [Pemetrexed] (partner 0.2 µM)
Method in brief: as §1

Row | Cell Line | relative viability (Dovitinib + Foretinib; first compound 0.02 µM) | relative viability (Dovitinib + Foretinib; first compound 0.06325 µM) | relative viability (Dovitinib + Foretinib; first compound 0.2 µM) | relative viability (Dovitinib + Foretinib; first compound 0.6325 µM) | relative viability (Dovitinib + Foretinib; first compound 2 µM) | relative viability (Dovitinib + Olaparib; first compound 0.02 µM) | relative viability (Dovitinib + Olaparib; first compound 0.06325 µM) | relative viability (Dovitinib + Olaparib; first compound 0.2 µM) | relative viability (Dovitinib + Olaparib; first compound 0.6325 µM) | relative viability (Dovitinib + Olaparib; first compound 2 µM) | relative viability (Dovitinib + Alpelisib; first compound 0.02 µM) | relative viability (Dovitinib + Alpelisib; first compound 0.06325 µM) | relative viability (Dovitinib + Alpelisib; first compound 0.2 µM) | relative viability (Dovitinib + Alpelisib; first compound 0.6325 µM) | relative viability (Dovitinib + Alpelisib; first compound 2 µM) | relative viability (Dovitinib + Pemetrexed; first compound 0.02 µM) | relative viability (Dovitinib + Pemetrexed; first compound 0.06325 µM) | relative viability (Dovitinib + Pemetrexed; first compound 0.2 µM) | relative viability (Dovitinib + Pemetrexed; first compound 0.6325 µM) | relative viability (Dovitinib + Pemetrexed; first compound 2 µM)
1 | NCI-H838 | 1.05 | 1.02 | 1.04 | 0.937 | 0.961 | 0.738 | 0.733 | 0.755 | 0.745 | 0.763 | 0.949 | 1.04 | 1.01 | 0.936 | 0.938 | 0.262 | 0.277 | 0.229 | 0.234 | 0.265
2 | NCI-H1437 | 1.24 | 1.29 | 1.22 | 1.2 | 1.27 | 0.623 | 0.647 | 0.612 | 0.632 | 0.655 | 0.952 | 0.981 | 0.909 | 0.904 | 0.966 | 0.293 | 0.327 | 0.31 | 0.288 | 0.308
3 | NCI-H2170 | 0.992 | 0.986 | 1.02 | 0.983 | 0.974 | 0.617 | 0.607 | 0.606 | 0.605 | 0.542 | 0.672 | 0.807 | 0.889 | 0.77 | 0.83 | 0.267 | 0.33 | 0.267 | 0.265 | 0.281
4 | LCLC-103H | 0.901 | 0.674 | 0.826 | 0.79 | 0.764 | 0.765 | 0.763 | 0.751 | 0.759 | 0.718 | 0.875 | 0.973 | 0.918 | 1.06 | 0.761 | 0.494 | 0.457 | 0.475 | 0.434 | 0.459
5 | NCI-H441 | 0.832 | 1.08 | 0.774 | 1.11 | 1.05 | 0.513 | 0.549 | 0.534 | 0.62 | 0.588 | 0.787 | 0.902 | 0.909 | 0.548 | 0.566 | 0.257 | 0.266 | 0.296 | 0.271 | 0.24
6 | SK-LU-1 | 0.875 | 0.904 | 0.789 | 0.773 | 0.845 | 0.418 | 0.487 | 0.446 | 0.501 | 0.452 | 0.928 | 0.946 | 0.951 | 0.805 | 1.16 | 0.985 | 0.92 | 0.913 | 1 | 1.02
7 | BEN | 0.52 | 0.566 | 0.68 | 0.698 | 0.614 | 1.11 | 1.09 | 1.08 | 1.1 | 1.05 | 0.981 | 0.828 | 0.988 | 0.954 | 0.936 | 0.713 | 0.812 | 0.633 | 0.836 | 0.697
8 | LC-2-ad | 0.989 | 0.946 | 1.03 | 0.911 | 1.05 | 0.691 | 0.666 | 0.734 | 0.775 | 0.741 | 0.873 | 0.833 | 0.728 | 0.8 | 0.74 | 0.27 | 0.29 | 0.306 | 0.259 | 0.269
9 | COR-L23 | 0.93 | 1 | 0.99 | 0.952 | 1.04 | 0.296 | 0.383 | 0.379 | 0.353 | 0.342 | 0.768 | 0.743 | 0.69 | 0.773 | 0.726 | 0.194 | 0.211 | 0.2 | 0.208 | 0.212
10 | RERF-LC-KJ | 0.832 | 0.905 | 0.96 | 0.886 | 0.858 | 0.932 | 0.892 | 0.939 | 0.982 | 0.896 | 0.794 | 0.825 | 0.852 | 0.822 | 0.87 | 0.47 | 0.49 | 0.483 | 0.475 | 0.47
11 | NCI-H1915 | 1.07 | 1.08 | 1.1 | 1.07 | 1.06 | 0.253 | 0.27 | 0.271 | 0.264 | 0.257 | 0.992 | 1.04 | 1.06 | 0.983 | 1.04 | 0.459 | 0.466 | 0.536 | 0.473 | 0.467
12 | NCI-H596 | 0.84 | 0.614 | 0.848 | 0.961 | 0.874 | 0.672 | 0.688 | 0.65 | 0.687 | 0.627 | 0.462 | 0.542 | 0.563 | 0.499 | 0.457 | 0.512 | 0.493 | 0.506 | 0.51 | 0.532
13 | NCI-H2009 | 1.16 | 1.25 | 1.22 | 1.15 | 1.27 | 0.651 | 0.668 | 0.657 | 0.671 | 0.832 | 1.07 | 1.16 | 1.06 | 1.14 | 1.14 | 0.967 | 1.06 | 1.03 | 0.979 | 1.03
14 | NCI-H2126 | 1.17 | – | 1.3 | 1.14 | 1.15 | 0.871 | 0.934 | 0.92 | 0.936 | 0.878 | 0.761 | 0.72 | 0.716 | 0.769 | 0.695 | 0.734 | 0.653 | 0.676 | 0.705 | 0.711
15 | LXF-289 | 0.99 | 1.01 | 0.882 | 1.02 | 0.953 | 0.974 | 1.08 | 1.07 | 1.1 | 0.976 | 1.01 | 1.02 | 1.02 | 1.03 | 0.926 | 0.883 | 0.893 | 0.864 | 0.962 | 0.894
16 | PC-14 | 0.976 | 0.91 | 0.945 | 0.945 | 0.914 | 0.291 | 0.276 | 0.27 | 0.217 | 0.247 | 0.805 | 1.03 | 0.966 | 0.946 | 0.883 | 0.128 | 0.134 | 0.121 | 0.141 | 0.132
17 | HOP-62 | 1.05 | 1.18 | 1.08 | 1.28 | 1.07 | 0.346 | 0.559 | 0.425 | 0.329 | 0.352 | 0.804 | 0.844 | 1.27 | 0.896 | 0.829 | 0.272 | 0.337 | 0.32 | 0.269 | 0.385
18 | NCI-H358 | 0.619 | 0.674 | 0.683 | 0.626 | 0.761 | 0.621 | 0.658 | 0.619 | 0.543 | 0.606 | 0.941 | 0.905 | 0.849 | 0.84 | 0.804 | 0.169 | 0.171 | 0.186 | 0.18 | 0.176
19 | SK-MES-1 | 0.895 | 0.993 | 0.927 | 0.86 | 0.919 | 0.682 | 0.749 | 0.74 | 0.773 | 0.829 | 0.852 | 0.89 | 0.907 | 0.936 | 0.971 | 0.941 | 0.958 | 0.972 | 0.966 | 1.03
20 | NCI-H1666 | 1.02 | 0.975 | 0.961 | 0.99 | 0.961 | 0.755 | 0.777 | 0.756 | 0.731 | 0.77 | 1.01 | 0.933 | 1.02 | 0.883 | 1.07 | 0.913 | 0.863 | 0.766 | 0.813 | 0.785
21 | NCI-H1355 | 0.943 | 0.932 | 0.713 | 0.976 | 0.903 | 0.792 | 0.762 | 0.717 | 0.723 | 0.754 | 0.797 | 0.796 | 0.864 | 0.764 | 0.82 | 1.08 | 0.945 | 1.16 | 1.1 | 1.1
22 | HCC-827 | 0.983 | 1.07 | 1.14 | 1.09 | 1.09 | 0.626 | 0.697 | 0.646 | 0.68 | 0.678 | 0.931 | 0.926 | 0.918 | 0.987 | 1.03 | 0.259 | 0.119 | 0.245 | 0.264 | 0.25
23 | HARA | 0.969 | 0.765 | 0.846 | 0.873 | 0.905 | 0.973 | 0.921 | 1.07 | 0.775 | 0.885 | 0.791 | 0.908 | 0.778 | 0.853 | 0.705 | 0.256 | 0.254 | 0.233 | 0.241 | 0.258
24 | HCC-366 | 0.958 | 0.901 | 0.947 | 0.925 | 0.883 | 0.324 | 0.352 | 0.412 | 0.297 | 0.324 | 0.545 | 0.393 | 0.478 | 0.505 | 0.446 | 0.129 | 0.208 | 0.161 | 0.161 | 0.166
25 | NCI-H322M | 0.95 | 0.898 | 0.941 | 0.923 | 0.869 | 0.727 | 0.697 | 0.74 | 0.858 | 0.881 | 0.84 | 0.774 | 0.792 | 0.809 | 0.776 | 0.597 | 0.613 | 0.634 | 0.607 | 0.6
26 | NCI-H2347 | 1.58 | 0.902 | 0.83 | 1.2 | 1.02 | 0.568 | 0.59 | 0.621 | 0.641 | 0.606 | 1.11 | 0.988 | 1.08 | 1.09 | 1.09 | 0.479 | 0.53 | 0.415 | 0.467 | 0.475
